Data reported in ChEMBL document CHEMBL5131509 (Eur J Med Chem, 2022).
The source made the active and inactive calls. No cut-off for these calls is given here.

Test system: not listed separately
Experiment: Oral bioavailability in rat at 5 mg/kg
Type: ADME, organism-based
Details: in vivo

**Q.** Which bioavailability does the source give for `O=C(Nc1ccc([N+](=O)[O-])cc1Cl)c1cc(Cl)ccc1O` [NICLOSAMIDE] here?
**A.** 10%

Test system: not listed separately
Experiment: Selectivity ratio of CC50 for African Green monkey Vero E6 cells to IC50 for SARS-CoV-2
Type: toxicity, Vero C1008
Details: not given

**Q.** With `CC(C)(C)c1cccc(NC(=O)c2cc(Cl)ccc2O)c1` as the compound, how does the selectivity ratio read?
**A.** 1.6

**Q.** Which selectivity ratio does the source give for `O=C(Nc1ccc([N+](=O)[O-])cc1Cl)c1ccccc1O` here?
**A.** 1.2

Test system: not listed separately
Experiment: in vitro
Details: chlorocebus sabaeus, Vero E6 cells
Description: Cytotoxicity against African green monkey Vero E6 cells assessed as reduction in cell viability preincubated for 2 hrs followed by SARS-CoV-2 addition measured after 24 hrs by CPE assay

**Q.** Which CC50 at 24 h does the source give for `O=C(Nc1ccc([N+](=O)[O-])cc1Cl)c1ccccc1O` here?
**A.** 100 µM

**Q.** Which CC50 at 24 h does the source give for `O=C(Nc1cccc(C(F)(F)F)c1)c1cc(Cl)ccc1O` here?
**A.** 100 µM

Test system: not listed separately
Experiment: Metabolic stability of the compound in human liver microsomes S9 fraction preincubated with NADPH for 10 mins followed by compound addition at 50 uM measured upto 360 mins by HPLC analysis
Type: ADME, subcellular
Details: read-out: Stability

**Q.** For `O=C(Nc1ccc([N+](=O)[O-])c(Cl)c1)c1cc(Cl)ccc1O`, which remaining at 6 h, 50 µM is on record?
**A.** 41%

**Q.** For `O=C(Nc1cccc(Cl)c1)c1cc(Cl)ccc1O`, which remaining at 6 h, 50 µM is on record?
**A.** 33%

**Q.** With `O=C(Nc1cccc(C(F)(F)F)c1)c1cc(Cl)ccc1O` as the compound, how does the remaining at 6 h, 50 µM read?
**A.** 47%

Test system: not listed separately
Experiment: in vitro
Details: PAMPA
Description: Permeability of compound incubated for 3 hrs by UV plate reader based PAMPA assay

**Q.** Which Papp at 3 h does the source give for `O=C(Nc1ccc(C(F)(F)F)cc1)c1cc(Cl)ccc1O` here?
**A.** 6.9 ×10⁻⁶ cm/s

**Q.** Which Papp at 3 h does the source give for `CC(C)(C)c1cccc(NC(=O)c2cc(Cl)ccc2O)c1` here?
**A.** 18.7 ×10⁻⁶ cm/s

**Q.** For `Cc1ccc(C(=O)Nc2ccc([N+](=O)[O-])cc2Cl)c(O)c1`, which Papp at 3 h is on record?
**A.** 6.1 ×10⁻⁶ cm/s

**Q.** With `O=C(Nc1ccc([N+](=O)[O-])cc1Cl)c1ccccc1` as the compound, how does the Papp at 3 h read?
**A.** 42.2 ×10⁻⁶ cm/s

**Q.** With `Cc1cccc(CNC(=O)c2cc(Cl)ccc2O)c1` as the compound, how does the Papp at 3 h read?
**A.** 28.4 ×10⁻⁶ cm/s

**Q.** With `Cc1ccc(O)c(C(=O)Nc2ccc([N+](=O)[O-])cc2Cl)c1` as the compound, how does the Papp at 3 h read?
**A.** 20.9 ×10⁻⁶ cm/s

**Q.** With `O=C(Nc1cccc([N+](=O)[O-])c1)c1cc(Cl)ccc1O` as the compound, how does the Papp at 3 h read?
**A.** 19.5 ×10⁻⁶ cm/s

**Q.** With `CNC(=C[N+](=O)[O-])NCCSCc1ccc(CN(C)C)o1` [RANITIDINE] as the compound, how does the Papp at 3 h read?
**A.** 1.6 ×10⁻⁶ cm/s

**Q.** With `O=C(Nc1ccc(O[C@@H]2O[C@H](CO)[C@@H](O)[C@H](O)[C@H]2O)cc1)c1cc(Cl)ccc1O` as the compound, how does the Papp at 3 h read?
**A.** 1.9 ×10⁻⁶ cm/s

**Q.** With `O=C(Nc1ccc([N+](=O)[O-])cc1Cl)c1ccccc1O` as the compound, how does the Papp at 3 h read?
**A.** 15.3 ×10⁻⁶ cm/s

**Q.** With `Cc1ccc(CNC(=O)c2cc(Cl)ccc2O)cc1` as the compound, how does the Papp at 3 h read?
**A.** 42.6 ×10⁻⁶ cm/s

**Q.** With `O=C(Nc1cccc(O)c1)c1cc(Cl)ccc1O` as the compound, how does the Papp at 3 h read?
**A.** 15.9 ×10⁻⁶ cm/s

**Q.** For `O=C(Nc1ccc(O)cc1)c1cc(Cl)ccc1O`, which Papp at 3 h is on record?
**A.** 33.1 ×10⁻⁶ cm/s

**Q.** For `O=C(Nc1cccc(Cl)c1)c1cc(Cl)ccc1O`, which Papp at 3 h is on record?
**A.** 8.6 ×10⁻⁶ cm/s

**Q.** For `O=C(Nc1ccccc1)c1cc(Cl)ccc1O`, which Papp at 3 h is on record?
**A.** 16 ×10⁻⁶ cm/s

**Q.** Which Papp at 3 h does the source give for `O=C(Nc1ccc(N2CCCCC2)cc1)c1cc(Cl)ccc1O` here?
**A.** 43.3 ×10⁻⁶ cm/s

**Q.** Which Papp at 3 h does the source give for `O=C(Nc1ccc([N+](=O)[O-])cc1Cl)c1cc(F)ccc1O` here?
**A.** 30.7 ×10⁻⁶ cm/s

**Q.** With `O=C(Nc1ccc(F)c(Cl)c1)c1cc(Cl)ccc1O` as the compound, how does the Papp at 3 h read?
**A.** 11.5 ×10⁻⁶ cm/s

**Q.** With `O=C(Nc1ccc([N+](=O)[O-])cc1Cl)c1cc(Cl)ccc1O` [NICLOSAMIDE] as the compound, how does the Papp at 3 h read?
**A.** 8.5 ×10⁻⁶ cm/s

**Q.** With `O=C(Nc1cccc(F)c1)c1cc(Cl)ccc1O` as the compound, how does the Papp at 3 h read?
**A.** 3.7 ×10⁻⁶ cm/s

**Q.** Which Papp at 3 h does the source give for `O=C(Nc1cccc(C(F)(F)F)c1)c1cc(Cl)ccc1O` here?
**A.** 4.2 ×10⁻⁶ cm/s

Test system: Vero C1008
Experiment: not given
Details: chlorocebus sabaeus, vero c1008, 48 h

**Q.** Which CC50 does the source give for `CC(C)(C)c1cccc(NC(=O)c2cc(Cl)ccc2O)c1` here?
**A.** 2.36 µM

**Q.** For `Cc1ccc(C(=O)Nc2ccc([N+](=O)[O-])cc2Cl)c(O)c1`, which CC50 is on record?
**A.** 21.6 µM

**Q.** Which CC50 does the source give for `O=C(Nc1ccc([N+](=O)[O-])cc1Cl)c1ccccc1` here?
**A.** > 100 µM

**Q.** With `Cc1cccc(CNC(=O)c2cc(Cl)ccc2O)c1` as the compound, how does the CC50 read?
**A.** 82.4 µM

**Q.** Which CC50 does the source give for `Cc1ccc(O)c(C(=O)Nc2ccc([N+](=O)[O-])cc2Cl)c1` here?
**A.** 5.68 µM

**Q.** Which CC50 does the source give for `O=C(Nc1cccc([N+](=O)[O-])c1)c1cc(Cl)ccc1O` here?
**A.** 3.53 µM

**Q.** For `O=C(Nc1ccc(O[C@@H]2O[C@H](CO)[C@@H](O)[C@H](O)[C@H]2O)cc1)c1cc(Cl)ccc1O`, which CC50 is on record?
**A.** > 100 µM

**Q.** With `O=C(Nc1ccc([N+](=O)[O-])cc1Cl)c1ccccc1O` as the compound, how does the CC50 read?
**A.** 2.03 µM

**Q.** Which CC50 does the source give for `Cc1ccc(CNC(=O)c2cc(Cl)ccc2O)cc1` here?
**A.** 47.7 µM

**Q.** For `O=C(Nc1ccc(F)cc1)c1cc(Cl)ccc1O`, which CC50 is on record?
**A.** 6.78 µM

**Q.** For `O=C(Nc1cccc(Cl)c1)c1cc(Cl)ccc1O`, which CC50 is on record?
**A.** 2.46 µM

**Q.** For `O=C(Nc1ccccc1)c1cc(Cl)ccc1O`, which CC50 is on record?
**A.** 19.2 µM

**Q.** With `O=C(Nc1ccc(N2CCCCC2)cc1)c1cc(Cl)ccc1O` as the compound, how does the CC50 read?
**A.** 65.9 µM

**Q.** With `O=C(Nc1ccc([N+](=O)[O-])cc1Cl)c1cc(F)ccc1O` as the compound, how does the CC50 read?
**A.** 8.15 µM

**Q.** For `O=C(Nc1ccc(F)c(Cl)c1)c1cc(Cl)ccc1O`, which CC50 is on record?
**A.** 2.44 µM

**Q.** For `O=C(Nc1ccc([N+](=O)[O-])cc1Cl)c1cc(Cl)ccc1O` [NICLOSAMIDE], which CC50 is on record?
**A.** 1.03 µM

**Q.** For `O=C(Nc1cccc(F)c1)c1cc(Cl)ccc1O`, which CC50 is on record?
**A.** 3.63 µM

**Q.** For `O=C(Nc1cccc(C(F)(F)F)c1)c1cc(Cl)ccc1O`, which CC50 is on record?
**A.** 5.95 µM

Test system: not listed separately
Experiment: Stability of compound in human plasma at 100 uM by HPLC analysis
Type: ADME, cell-free
Details: read-out: Stability

**Q.** Which remaining at 100 µM does the source give for `O=C(Nc1ccc([N+](=O)[O-])c(Cl)c1)c1cc(Cl)ccc1O` here?
**A.** 78%

Test system: not given
Experiment: not given
Details: pampa, 3 h

**Q.** Which permeability does the source give for `O=C(Nc1ccc(F)cc1)c1cc(Cl)ccc1O` here?
**A.** 18.2 10^-6 cm/s

**Q.** Which permeability does the source give for `O=C(Nc1ccc([N+](=O)[O-])cc1)c1cc(Cl)ccc1O` here?
**A.** 12.4 10^-6 cm/s

Test system: SARS-CoV-2
Experiment: Antiviral activity against SARS-CoV-2 infected in African Green monkey Vero cells assessed as inhibition of viral cytopathic effect measured after 72 hrs by inverted microscopic method
Type: functional, organism-based, Vero E6
Details: Severe acute respiratory syndrome coronavirus 2, Vero C1008, 72 h

**Q.** For `O=C(Nc1ccc(C(F)(F)F)cc1)c1cc(Cl)ccc1O`, which IC50 is on record?
**A.** 0.38 µM

**Q.** For `CC(C)(C)c1cccc(NC(=O)c2cc(Cl)ccc2O)c1`, which IC50 is on record?
**A.** 1.51 µM

**Q.** With `COc1ccc2cc1Oc1ccc(cc1)C[C@H]1c3c(cc4c(c3Oc3cc5c(cc3OC)CCN(C)[C@@H]5C2)OCO4)CCN1C` [CEPHARANTHINE] as the compound, how does the IC50 read?
**A.** 2.8 µM

**Q.** Which IC50 does the source give for `O=C(Nc1cccc([N+](=O)[O-])c1)c1cc(Cl)ccc1O` here?
**A.** 1.29 µM

**Q.** For `Cc1c(O)cccc1C(=O)N[C@@H](CSc1ccccc1)[C@H](O)CN1C[C@H]2CCCC[C@H]2C[C@H]1C(=O)NC(C)(C)C`, which IC50 is on record?
**A.** 3.3 µM

**Q.** For `O=C(Nc1ccc([N+](=O)[O-])cc1Cl)c1ccccc1O`, which IC50 is on record?
**A.** 1.68 µM

**Q.** Which IC50 does the source give for `O=C(Nc1ccc([N+](=O)[O-])c(Cl)c1)c1cc(Cl)ccc1O` here?
**A.** 0.057 µM

**Q.** For `O=C(Nc1cccc(Cl)c1)c1cc(Cl)ccc1O`, which IC50 is on record?
**A.** 0.39 µM

**Q.** Which IC50 does the source give for `O=C(Nc1ccccc1)c1cc(Cl)ccc1O` here?
**A.** 8.59 µM

**Q.** For `O=C(Nc1ccc([N+](=O)[O-])cc1)c1cc(Cl)ccc1O`, which IC50 is on record?
**A.** 1.11 µM

**Q.** For `O=C(Nc1ccc([N+](=O)[O-])cc1Cl)c1cc(Cl)ccc1O` [NICLOSAMIDE], which IC50 is on record?
**A.** 0.4 µM

**Q.** Which IC50 does the source give for `O=C(Nc1cccc(C(F)(F)F)c1)c1cc(Cl)ccc1O` here?
**A.** 0.49 µM

Test system: Vero E6
Experiment: not given
Type: cell-based
Details: Chlorocebus aethiops, time 1.0 hrs

**Q.** For `O=C(Nc1ccc([N+](=O)[O-])c(Cl)c1)c1cc(Cl)ccc1O`, which inhibition is on record?
**A.** Active

**Q.** For `O=C(Nc1ccc([N+](=O)[O-])cc1Cl)c1cc(Cl)ccc1O` [NICLOSAMIDE], which inhibition is on record?
**A.** Active

Test system: not listed separately
Experiment: in vitro
Details: chlorocebus sabaeus, Vero E6 cells
Remark: another data set of the same source
Description: Cytotoxicity against African Green monkey Vero E6 cells assessed as reduction in cell viability measured after 48 hrs by MTT assay

**Q.** For `O=C(Nc1cccc(O)c1)c1cc(Cl)ccc1O`, which CC50 at 48 h is on record?
**A.** > 100 µM

**Q.** With `O=C(Nc1ccc(O)cc1)c1cc(Cl)ccc1O` as the compound, how does the CC50 at 48 h read?
**A.** > 100 µM
